From ChEMBL document CHEMBL5143523, “Construction and activity evaluation of novel benzodioxane derivatives as dual-target antifungal inhibitors” (Eur J Med Chem, 2022)
The source made the active and inactive calls. The calls are words filed in the database; no cut-off is given here.

Tests used:
Candida albicans [1] = assay: Antifungal activity against fluconazole resistant Candida albicans strain 901 assessed as fungal growth inhibition measured after 72 hrs in presence of naftifine by CLSI protocol based liquid medium dilution method; type: functional
Candida albicans [2] = assay: Antifungal activity against fluconazole resistant Candida albicans strain CaR assessed as fungal growth inhibition measured after 72 hrs in presence of naftifine by CLSI protocol based liquid medium dilution method; type: functional
Candida albicans [3] = assay: Antifungal activity against fluconazole resistant Candida albicans strain 103 assessed as fungal growth inhibition measured after 72 hrs in presence of naftifine by CLSI protocol based liquid medium dilution method; type: functional
Candida albicans [4] = assay: Antifungal activity against fluconazole resistant Candida albicans strain 901 assessed as decrease in fungal cell density in presence naftifine of by fluorescence microscopy; type: functional, organism-based
Candida albicans [5] = assay: Antifungal activity against fluconazole resistant Candida albicans strain 904 assessed as fungal growth inhibition measured after 72 hrs in presence of naftifine by CLSI protocol based liquid medium dilution method; type: functional
Candida albicans [6] = assay: Antifungal activity against fluconazole resistant Candida albicans strain 17# assessed as fungal growth inhibition measured after 72 hrs in presence of naftifine by CLSI protocol based liquid medium dilution method; type: functional
[7] = Drug uptake in fluconazole resistant Candida albicans strain 901 in presence of naftifine by fluorescence microscopy; type: ADME

Which MIC50 (Candida albicans [1]) does the source give for Clc1ccc(COC(Cn2ccnc2)c2ccc(Cl)cc2Cl)c(Cl)c1 (configuration not stated) [MICONAZOLE] here?
The MIC50 was 2 µg/mL.

What about the MIC50 (Candida albicans [2]) of the same molecule?
Its MIC50 is 1 µg/mL.

What about the MIC50 (Candida albicans [3]) of the same molecule?
Its MIC50 is 2 µg/mL.

What about the Activity (Candida albicans [4]) of the same molecule?
Its Activity is “Active”.

And the MIC50 (Candida albicans [5])?
The MIC50 was 1 µg/mL.

What about the MIC50 (Candida albicans [6]) of the same molecule?
Its MIC50 is 1 µg/mL.

What about the Drug uptake [7] of the same molecule?
Its Drug uptake is “Active”.
